Laboratory results as given in US10633338B2, “Binding Function 3 (BF3) site compounds as therapeutics and methods for their use” (THE UNIVERSITY OF BRITISH COLUMBIA, priority 2014, dated 2020).
Read-outs that look alike come from different tables or passages of the source.

Assays:
PSA = experiment: Prostate Surface Antigen (PSA) assay, PSA excreted into the media; type: cell-based, human; conditions: same plates as eGFP assay
Protocol: The evaluation of PSA excreted into the media was performed in parallel to the eGFP assay using the same plates (see above description). After the cells were incubated for 3 days 150 μl of the media was taken from each well, and added to 150 μl of PBS.

androgen receptor (AR) = molecular target: T1, androgen receptor (AR) (Homo sapiens, UniProt P10275, T878A); experiment: eGFP cellular AR transcription assay; type: cell-based
T1 construct: stably transfected eGFP-expressing LNCaP human prostate cancer cells (LN-ARR2PB-eGFP) containing an androgen responsive probasin-derived promoter; endogenous in cells; host or cells: LNCaP (LN-ARR2PB-eGFP)
T1 sequence (P10275 1-920 T878A): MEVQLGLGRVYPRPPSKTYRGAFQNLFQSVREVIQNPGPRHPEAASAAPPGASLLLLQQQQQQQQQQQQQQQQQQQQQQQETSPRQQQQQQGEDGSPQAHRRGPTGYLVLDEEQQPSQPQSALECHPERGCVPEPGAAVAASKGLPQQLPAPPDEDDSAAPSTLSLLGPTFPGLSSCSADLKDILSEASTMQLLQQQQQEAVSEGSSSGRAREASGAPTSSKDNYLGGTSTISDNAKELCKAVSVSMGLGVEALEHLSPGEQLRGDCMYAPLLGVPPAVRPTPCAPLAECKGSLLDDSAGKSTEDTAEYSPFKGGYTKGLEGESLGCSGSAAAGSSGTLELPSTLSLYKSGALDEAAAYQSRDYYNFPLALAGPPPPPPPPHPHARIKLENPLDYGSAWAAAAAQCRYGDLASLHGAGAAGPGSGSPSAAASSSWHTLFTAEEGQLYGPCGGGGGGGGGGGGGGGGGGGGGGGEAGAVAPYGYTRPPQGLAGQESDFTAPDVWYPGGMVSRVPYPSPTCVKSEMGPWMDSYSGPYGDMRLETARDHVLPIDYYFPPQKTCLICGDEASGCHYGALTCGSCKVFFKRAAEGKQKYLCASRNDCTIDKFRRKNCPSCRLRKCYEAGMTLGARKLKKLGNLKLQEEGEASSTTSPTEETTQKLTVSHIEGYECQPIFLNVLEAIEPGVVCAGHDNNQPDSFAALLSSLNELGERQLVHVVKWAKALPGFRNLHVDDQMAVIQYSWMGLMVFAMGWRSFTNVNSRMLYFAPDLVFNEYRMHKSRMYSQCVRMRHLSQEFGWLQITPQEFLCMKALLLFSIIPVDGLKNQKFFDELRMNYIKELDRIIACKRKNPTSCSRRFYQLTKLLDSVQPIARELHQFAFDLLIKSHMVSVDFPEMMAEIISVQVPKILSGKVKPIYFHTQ
Protocol: After 5 days, the cells were plated into a 96-well plate (35,000 cells/well) with 0.1 nM of the synthetic androgen R1881 and increasing concentrations (0-100 μM) of compound.
After 5 days, the cells were plated into a 96-well plate (35,000 cells/well) with 0.1 nM R1881 and increasing concentrations (0-100 μM) of compound.
In this assay, the expression of eGFP is under the control of an androgen responsive probasin-derived promoter and can quantify AR transcriptional activity.

[1] = PSA excreted into media, 3 days incubation
[2] = LN-ARR2PBeGFP LNCaP cells, 0.1 nM R1881, 3 days incubation
[3] = Homo sapiens, 72 h, media after 3 days, read-out: IC50 (PSA)
[4] = LN-ARR2PB-eGFP LNCaP cells, 0.1 nM R1881, 3 days, 0-100 μM compound, read-out: IC50 (eGFP)
[5] = Homo sapiens, 72 h, PSA excreted into media, 3 days incubation, read-out: PSA IC50
[6] = LN-ARR2PBeGFP LNCaP cells, 0.1 nM R1881, 3 days incubation, read-out: eGFP IC50
[7] = LN-ARR2PB-eGFP LNCaP cells, 0.1 nM R1881, 3 days, 0-100 μM compound

IC50 (PSA; [5])	IC50 (androgen receptor (AR); [6])	SMILES	also measured
–	–	CNC(=O)c1cccc2nc(-c3c[nH]c4c(C)c(F)ccc34)ccc12 [Compound 13615]	PSA IC50 (PSA; [1]): Inactive; eGFP IC50 (androgen receptor (AR); [2]): Inactive
–	–	Cc1cccc2c(-c3ccc4cccnc4c3)c[nH]c12 [13 744]	IC50 (PSA; [3]): 750 nM; IC50 (androgen receptor (AR); [4]): 760 nM
6650 nM	4900 nM	CC1(C)c2cc(Br)ccc2NC1c1cn(S(=O)(=O)C[C@]23CC[C@@H](CC2=O)C3(C)C)c2ccccc12 (some centres unmarked) [Compound 13524]	–
290 nM	1130 nM	Brc1cccc2c(-c3cnc4ccccc4c3)c[nH]c12 [Compound 13653]	–
670 nM	590 nM	COc1cccc2c(-c3cc(C)c4ccccc4n3)c[nH]c12 [Compound 13554]	–
–	–	Cc1cccc2c(C3Nc4ccccc4C34CCCCC4)c[nH]c12 (centres unmarked) [13 549]	IC50 (PSA; [3]): 2570 nM; IC50 (androgen receptor (AR); [4]): 1700 nM
2460 nM	1700 nM	Fc1ccc(Nc2nc3ccccc3[nH]2)cc1Cl [Compound 13145]	–
–	–	Fc1cc(Cl)cc2cc[nH]c12 [Compound 13720]	PSA IC50 (PSA; [1]): Inactive; eGFP IC50 (androgen receptor (AR); [2]): Inactive
390 nM	380 nM	FC(F)(F)c1ccc(-c2c[nH]c3ccccc23)cc1 [Compound 13743]	–
530 nM	760 nM	c1ccc2nc(-c3c[nH]c4ccccc34)ncc2c1 [Compound 13587]	–
–	–	Oc1cc2ccccc2cc1-c1nc2ccccc2[nH]1 [Compound 13687]	PSA IC50 (PSA; [1]): Inactive; eGFP IC50 (androgen receptor (AR); [2]): Inactive
–	–	Fc1cc(F)c2[nH]ccc2c1 [Compound 13723]	PSA IC50 (PSA; [1]): Inactive; eGFP IC50 (androgen receptor (AR); [2]): Inactive
–	–	Cc1c(F)ccc2c(-c3ccc4c(F)cccc4n3)c[nH]c12 [Compound 13631]	PSA IC50 (PSA; [1]): Inactive; eGFP IC50 (androgen receptor (AR); [2]): Inactive
–	–	Cc1cccc2nc(-c3c[nH]c4c(C)c(F)ccc34)ccc12 [Compound 13616]	PSA IC50 (PSA; [1]): Inactive; eGFP IC50 (androgen receptor (AR); [2]): Inactive
740 nM	950 nM	Cc1ccccc1CSc1c(C)[nH]c2ccccc12 [Compound 13222]	–
3190 nM	3700 nM	CC1(C)c2ccc(Br)cc2NC1c1c[nH]c2c(OCc3ccccc3)cccc12 (centres unmarked) [Compound 13543]	–
–	–	c1ccc2c(-c3nn[nH]n3)c[nH]c2c1 [13 701]	IC50 (PSA) (PSA; media after 3 days): IC50 (PSA) = Inactive; IC50 (eGFP) (androgen receptor (AR); [7]): IC50 (eGFP) = Inactive
–	210 nM	Fc1ccc2nc(-c3c[nH]c4c(F)c(F)c(F)cc34)ccc2c1 [Compound 13776]	IC50 (PSA; PSA excreted into media, 3 days incubation, read-out: PSA IC50): 190 nM
1600 nM	4700 nM	CC1(C)c2cc(Br)ccc2NC1c1c[nH]c2ccc([N+](=O)[O-])cc12 (centres unmarked) [Compound 13530]	–
2400 nM	5200 nM	O=C(c1cc2cc(F)ccc2[nH]1)N(Cc1ccco1)Cc1ccco1 [Compound 9125]	–
–	–	Cc1cc(-c2c[nH]c3c(C)c(F)ccc23)nc2ccccc12 [Compound 13659]	PSA IC50 (PSA; [1]): Inactive; eGFP IC50 (androgen receptor (AR); [2]): Inactive
2520 nM	2200 nM	COc1ccc2[nH]cc(C3Nc4ccccc4C3(C)C)c2c1 (centres unmarked) [Compound 13536]	–
750 nM	760 nM	Cc1cccc2c(-c3ccc4cccnc4c3)c[nH]c12 [Compound 13744]	–
290 nM	290 nM	FC(F)(F)c1ccc(-c2c[nH]c3ccccc23)nc1 [Compound 13741]	–
–	–	O=[N+]([O-])c1cccc2nc(-c3c[nH]c4c(Cl)cc(F)cc34)ccc12 [Compound 13667]	PSA IC50 (PSA; [1]): Inactive; eGFP IC50 (androgen receptor (AR); [2]): Inactive
–	–	O=[N+]([O-])c1cccc2c(-c3ccc4ccccc4c3)c[nH]c12 [13 702]	IC50 (PSA; [3]): 140 nM; IC50 (androgen receptor (AR); [4]): 200 nM
–	–	Brc1cccc2c(-c3cnc4ccccc4c3)c[nH]c12 [13 653]	IC50 (PSA; [3]): 290 nM; IC50 (androgen receptor (AR); [4]): 1130 nM

IC50 (PSA; [5])	IC50 (androgen receptor (AR); [6])	SMILES	also measured
2320 nM	2700 nM	Cc1[nH]c2ccccc2c1SCc1ccccc1 [Compound 13416]	–
–	–	c1ccc2nc(-c3c[nH]c4ccccc34)ccc2c1 [13 562]	IC50 (PSA; [3]): 140 nM; IC50 (androgen receptor (AR); [4]): 60 nM
98 nM	160 nM	Fc1cc(F)c2[nH]cc(-c3ccc4c(Cl)cccc4n3)c2c1F [Compound 13753]	–
–	–	Brc1ccc2c(-c3ccc4ccccc4n3)c[nH]c2c1 [13 568]	IC50 (PSA; [3]): 1560 nM; IC50 (androgen receptor (AR); [4]): 1300 nM
929 nM	1250 nM	Cc1ccc(C)c2c(-c3ccc4ccccc4n3)c[nH]c12 [Compound 13600]	–
–	–	Oc1cc2ccccc2cc1-c1nc2ccccc2[nH]1 [13 687]	IC50 (PSA) (PSA; media after 3 days): IC50 (PSA) = Inactive; IC50 (eGFP) (androgen receptor (AR); [7]): IC50 (eGFP) = Inactive
–	–	Cc1ccc2[nH]cc(C3Nc4ccccc4C34CCCCC4)c2c1 (centres unmarked) [13 548]	IC50 (PSA; [3]): 4240 nM; IC50 (androgen receptor (AR); [4]): 3200 nM
544 nM	549 nM	Fc1ccc(Cl)c2[nH]cc(-c3ccc4ccccc4n3)c12 [Compound 13639]	–
–	–	Cc1cc(F)cc2cc[nH]c12 [Compound 13722]	PSA IC50 (PSA; [1]): Inactive; eGFP IC50 (androgen receptor (AR); [2]): Inactive
1780 nM	4900 nM	Oc1cc2ccccc2nc1-c1c[nH]c2cc(F)c(F)cc12 [Compound 13629]	–
110 nM	370 nM	Cc1cc(F)cc2c(-c3cnc4ccc(F)cc4n3)n[nH]c12 [Compound 13718]	–
–	–	c1ccc2cc(-c3c[nH]c4ncccc34)ccc2c1 [13 676]	IC50 (PSA; [3]): 34 nM; IC50 (androgen receptor (AR); [4]): 53 nM
270 nM	300 nM	Cc1cccc2c(-c3ccc4ocnc4c3)c[nH]c12 [Compound 13759]	–
–	–	CC1(C)c2ccc(Br)cc2NC1c1c[nH]c2c(OCc3ccccc3)cccc12 (centres unmarked) [13 543]	IC50 (PSA; [3]): 3190 nM; IC50 (androgen receptor (AR); [4]): 3700 nM
200 nM	220 nM	Fc1ccc(-c2c[nH]c3ccccc23)nc1 [Compound 13742]	–
429 nM	479 nM	Fc1ccc2nc(-c3c[nH]c4c(F)c(F)c(F)cc34)cnc2c1 [Compound 13762]	–
–	–	c1ccc2c(Cc3nn[nH]n3)c[nH]c2c1 [13 700]	IC50 (PSA) (PSA; media after 3 days): IC50 (PSA) = Inactive; IC50 (eGFP) (androgen receptor (AR); [7]): IC50 (eGFP) = Inactive
–	–	Fc1cc(Cl)c2[nH]ccc2c1 [Compound 13721]	PSA IC50 (PSA; [1]): Inactive; eGFP IC50 (androgen receptor (AR); [2]): Inactive
–	–	Cc1cccc2c(-c3ccc4scnc4c3)c[nH]c12 [Compound 13758]	PSA IC50 (PSA; [1]): Inactive; eGFP IC50 (androgen receptor (AR); [2]): Inactive
48 nM	144 nM	Fc1ccc2c(-c3ccc4ccccc4n3)c[nH]c2c1 [Compound 13576]	–
120 nM	110 nM	Fc1cc2[nH]cc(-c3ccc4c(F)cccc4n3)c2cc1F [Compound 13693]	–
–	–	Cc1cccc2c(-c3cnc4cccnc4c3)c[nH]c12 [Compound 13662]	PSA IC50 (PSA; [1]): Inactive; eGFP IC50 (androgen receptor (AR); [2]): Inactive
3100 nM	2800 nM	CCOC(=O)CN1c2ccccc2C(C)(C)C1c1c[nH]c2ccccc12 (centres unmarked) [Compound 13532]	–
–	–	Cc1cccc2c(-c3ccc4c([N+](=O)[O-])cccc4n3)c[nH]c12 [Compound 13632]	PSA IC50 (PSA; [1]): Inactive; eGFP IC50 (androgen receptor (AR); [2]): Inactive
–	–	c1ccc2cc(-c3c[nH]c4cccnc34)ccc2c1 [13 703]	IC50 (PSA; [3]): 97 nM; IC50 (androgen receptor (AR); [4]): 100 nM
250 nM	300 nM	FC(F)(F)c1ccccc1/N=N/c1c[nH]c2ccccc12 [Compound 13259]	–
–	–	CC1(C)c2ccccc2NC1c1c[nH]c2ncccc12 (centres unmarked) [13 556]	IC50 (PSA; [3]): 2180 nM; IC50 (androgen receptor (AR); [4]): 2100 nM

SMILES	IC50 (PSA; [5])	IC50 (androgen receptor (AR); [6])	also measured
CC1(C)c2ccccc2NC1c1c[nH]c2ccc(Cl)cc12 (centres unmarked) [Compound 13522]	2190 nM	3400 nM	–
